Assay results reported in ChEMBL document CHEMBL2203186, “T-type Ca2+ channel blocker, KYS05047 induces G1 phase cell cycle arrest by decreasing intracellular Ca2+ levels in human lung adenocarcinoma A549 cells” (Bioorg Med Chem Lett, 2012).
Active and inactive are the calls of the source. The rule behind the calls is not given here.

What was measured:
A549 [1] = assay: Cell cycle arrest at G1 phase in human A549 cells at 7 uM after 24 hrs using propidium iodide by flow cytometry in presence of KCl; type: functional, cell-based
A549 [2] = assay: Inhibition of T-type Ca2+ channel in human A549 cells assessed as reduction in intracellular ca2+ level at 3 to 8 uM after 108 mins by Fluo-4 staining method in presence of KCl; type: cell-based
A549 [3] = assay: Inhibition of T-type Ca2+ channel in human A549 cells assessed as reduction in intracellular ca2+ level at 3 to 8 uM after 108 mins by Fluo-4 staining method; type: cell-based
A549 [4] = assay: Antitumor activity against human A549 cells xenografted in BALB/c nu/nu mouse assessed as tumor growth inhibition at 2 to 10 mg/kg, po administered 5 times a week for 21 days; type: functional, organism-based
A549 [5] = assay: Upregulation of p27Kip1 protein level in human A549 cells assessed as inhibition of mTOR activity at 7 uM by Western blot method; type: functional, cell-based; conditions: TDE = time-dependent effect
A549 [6] = assay: Upregulation of p27Kip1 protein level in human A549 cells assessed as inhibition of AKT activity at 7 uM by Western blot method; type: functional, cell-based; conditions: TDE = time-dependent effect
A549 [7] = assay: Upregulation of p27Kip1 protein level in human A549 cells assessed as inhibition of CDK4-mediated Rb phosphorylation at 7 uM by Western blot method; type: functional, cell-based; conditions: TDE = time-dependent effect
A549 [8] = assay: Upregulation of p27Kip1 protein level in human A549 cells assessed as inhibition of CDK2 activity at 7 uM by Western blot method; type: functional, cell-based; conditions: TDE = time-dependent effect
A549 [9] = assay: Effect on p21Waf1 protein level in human A549 cells at 7 uM after 3 to 24 hrs by Western blot method; type: functional, cell-based
A549 [10] = assay: Upregulation of p27Kip1 protein level in human A549 cells at 7 uM by Western blot method; type: functional, cell-based; conditions: TDE = time-dependent effect
A549 [11] = assay: Effect on Cyclin E protein level in human A549 cells at 7 uM after 3 to 24 hrs by Western blot method; type: functional, cell-based
A549 [12] = assay: Effect on Cyclin D1 protein level in human A549 cells at 7 uM after 3 to 24 hrs by Western blot method; type: functional, cell-based
A549 [13] = assay: Downregulation of Cdk4 protein level in human A549 cells at 7 uM after 3 to 24 hrs by Western blot method; type: functional, cell-based
A549 [14] = assay: Cell cycle arrest at G1 phase in human A549 cells at 7 uM after 24 hrs using propidium iodide by flow cytometry; type: functional, cell-based
A549 [15] = assay: Cell cycle arrest in human A549 cells assessed as reduction in cells at S phase at 2 to 7 uM after 24 hrs using propidium iodide by flow cytometry; type: functional, cell-based
A549 [16] = assay: Downregulation of Cdk2 protein level in human A549 cells at 7 uM after 3 to 24 hrs by Western blot method; type: functional, cell-based
A549 [17] = assay: Cytocidal activity in human A549 cells at 6 to 8 uM by trypan Blue assay; type: functional, cell-based
A549 [18] = assay: Growth inhibition of human A549 cells at 6 to 48 hrs by trypan Blue assay; type: functional, cell-based
A549 [19] = assay: Growth inhibition of human A549 cells at 4 to 12 uM by trypan Blue assay; type: functional, cell-based; conditions: TDE = time-dependent effect
Mus musculus [20] = assay: Toxicity in BALB/c nu/nu mouse assessed as mortality at 20 mg/kg, ip administered twice a week for 21 days; type: organism-based; set-up: dose 20 mg/kg, route intraperitoneal; conditions: in vivo, 504 h
Mus musculus [21] = assay: Toxicity in BALB/c nu/nu mouse assessed as change in body weight at 20 mg/kg, ip administered twice a week for 21 days; type: organism-based; set-up: dose 20 mg/kg, route intraperitoneal; conditions: in vivo, 504 h
A549 [22] = assay: Antitumor activity against human A549 cells xenografted in BALB/c nu/nu mouse assessed as tumor growth inhibition at 20 mg/kg, ip administered twice a week for 21 days; type: functional, organism-based; set-up: dose 20 mg/kg

## CC(C)(C)OC(=O)NCCCCCN1C(Nc2ccc(-c3ccccc3)cc2)=Nc2ccccc2C1CC(=O)NCc1ccccc1 (configuration not stated)
A549 [1]
  Activity: inactive
A549 [2]
  inhibition: inactive
A549 [3]
  inhibition: Active
A549 [4]
  TGI: Active
A549 [5]
  inhibition: tde
A549 [6]
  inhibition: tde
A549 [7]
  inhibition: tde
A549 [8]
  inhibition: tde
A549 [9]
  Activity: inactive
A549 [10]
  Activity: tde
A549 [11]
  Activity: inactive
A549 [12]
  Activity: inactive
A549 [13]
  Activity: Active
A549 [14]
  Activity: Active
A549 [15]
  Activity: Active
A549 [16]
  Activity: Active
A549 [17]
  Activity: inactive
A549 [18]
  growth inhibition (GI): Dose-dependent effect
A549 [19]
  growth inhibition (GI): tde

## CC(=O)O[C@H]1C(=O)[C@@]2(C)[C@H]([C@H](OC(=O)c3ccccc3)[C@]3(O)C[C@H](OC(=O)[C@H](O)[C@@H](NC(=O)c4ccccc4)c4ccccc4)C(C)=C1C3(C)C)[C@]1(OC(C)=O)CO[C@@H]1C[C@@H]2O [PACLITAXEL]
Mus musculus [20]
  Activity: Non-toxic
Mus musculus [21]
  Activity: Non-toxic
A549 [22]
  TGI: Active
